The values that follow are results of earlier work, collected in patent US12673027B2, “Method for the production of commercial nanoparticle and microparticle powders” (ICEUTICA PTY LTD., priority 2009, dated 2026).

For the data set the following is noted: absorption by the body.

With `Cc1cnc(NC(=O)C2=C(O)c3ccccc3S(=O)(=O)N2C)s1` [Meloxicam], the Tmax is 4 to 5 h.
